Data from US11459296B2, “Antibacterial compounds” (INFEX Therapeutics Limited, priority 2018, dated 2022).
≈ marks a conversion by molar mass, not a printed value. Counter-ions that a name gives are not always drawn.

Biological target: NDM-1 (Klebsiella pneumoniae, UniProt C7C422)
Test: metallo-β-lactamase inhibition assay (nitrocefin)
Type: biochemical
Settings: 1.5 nM NDM-1, 100 μM nitrocefin, 37° C., pH 7.5
Method: Compounds of the invention were tested in a metallo-β-lactamase inhibition assay to investigate mechanism of action of the compounds. Results are reported as the concentration of test article required to inhibit enzyme activity by 50% (IC50).
Inhibition of metallo-β-lactamase enzyme function was performed at 37° C. in buffer at pH 7.5 (50 mM HEPES, 150 mM NaCl, 0.1 mM ZnSO4, 20 μg/mL PEG4000), containing 1.5 nM NDM-1, 100 μM nitrocefin, and a range of concentrations of compound. Absorbance at 490 nm was measured using a BMG LABTECH FLUOstar Omega microplate reader every minute for 30 minutes. IC50S were determined from the average increase in OD per minute versus the Log 10 concentration of compound using GraphPad Prism.

NDM-1, sequence (C7C422 whole entry, looked up, species assumed): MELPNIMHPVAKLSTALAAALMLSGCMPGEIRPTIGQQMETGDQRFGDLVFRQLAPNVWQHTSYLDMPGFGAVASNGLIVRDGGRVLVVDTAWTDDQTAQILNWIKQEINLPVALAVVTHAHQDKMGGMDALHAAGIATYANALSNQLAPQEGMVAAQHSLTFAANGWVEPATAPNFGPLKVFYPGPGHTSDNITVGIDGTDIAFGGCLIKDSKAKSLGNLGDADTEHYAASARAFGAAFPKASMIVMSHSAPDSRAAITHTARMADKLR

IC50 | SMILES
2860 nM | Cn1cc(-c2ccn(S(N)(=O)=O)c2C(=O)O)cn1 [Example 6, 3-(1-Methyl-1H-pyrazol-4-yl)-1-sulfamoyl-1H-pyrrole-2-carboxylic acid, sodium salt]
444 nM | CS(=O)(=O)c1ccc(-c2ccn(S(N)(=O)=O)c2C(=O)O)cc1 [Example 5, 3-(4-Methanesulfonylphenyl)-1-sulfamoyl-1H-pyrrole-2-carboxylic acid, sodium salt]
725 nM | NS(=O)(=O)n1ccc(-c2ccc(F)cc2)c1C(=O)O [Example 18, 3-(4-Fluorophenyl)-1-sulfamoyl-pyrrole-2-carboxylic acid, sodium salt]
151 nM | NS(=O)(=O)n1ccc(-c2ccc(C3CCNCC3)cc2)c1C(=O)O [Example 34, 3-[4-(Piperidin-4-yl)phenyl]-1-sulfamoyl-1H-pyrrole-2-carboxylic acid hydrochloride]
1310 nM | CC(=O)N1CCC(c2ccn(S(N)(=O)=O)c2C(=O)O)CC1 [Example 58, 3-(1-Acetylpiperidin-4-yl)-1-sulfamoyl-1H-pyrrole-2-carboxylic acid]
512 nM | NC(=O)c1ccc(-c2ccn(S(N)(=O)=O)c2C(=O)O)cc1 [Example 26, 3-(4-Carbamoylphenyl)-1-sulfamoyl-pyrrole-2-carboxylic acid]
1350 nM | NS(=O)(=O)n1ccc(-c2ccncc2)c1C(=O)O [Example 9, 3-(Pyridin-4-yl)-1-sulfamoyl-1H-pyrrole-2-carboxylic acid, sodium salt]
1360 nM | Nc1ncc(-c2ccn(S(N)(=O)=O)c2C(=O)O)cn1 [Example 25, 3-(2-Aminopyrimidin-5-yl)-1-sulfamoyl-pyrrole-2-carboxylic acid, sodium salt]
2570 nM | NS(=O)(=O)n1ccc(-n2cccc2)c1C(=O)O [Example 73, 3-Pyrrol-1-yl-1-sulfamoyl-pyrrole-2-carboxylic acid, Sodium Salt]
656 nM | Nc1nc2ccc(-c3ccn(S(N)(=O)=O)c3C(=O)O)cn2n1 [Example 47, 3-(2-Amino-[1,2,4]triazolo[1,5-a]pyridin-6-yl)-1-sulfamoyl-pyrrole-2-carboxylic acid hydrochloride]
834 nM | NCCC(=O)N1CCC(c2ccn(S(N)(=O)=O)c2C(=O)O)CC1 [Example 63, 3-[1-(3-Aminopropanoyl)-4-piperidyl]-1-sulfamoyl-pyrrole-2-carboxylic acid]
608 nM | CC(=O)Nc1ccc(-c2ccn(S(N)(=O)=O)c2C(=O)O)cn1 [Example 24, 3-(6-Acetamido-3-pyridyl)-1-sulfamoyl-pyrrole-2-carboxylic acid]
314 nM | Nc1nc2c(-c3ccn(S(N)(=O)=O)c3C(=O)O)cccc2s1 [Example 53, 3-(2-Amino-1,3-benzothiazol-4-yl)-1-sulfamoyl-pyrrole-2-carboxylic acid hydrochloride]
264 nM | NS(=O)(=O)n1ccc(-c2cccc(C3CCNCC3)c2)c1C(=O)O [Example 40, 3-[3-(4-Piperidyl)phenyl]-1-sulfamoyl-pyrrole-2-carboxylic acid hydrochloride]
263 nM | NCCCNC(=O)c1ccc(-c2ccn(S(N)(=O)=O)c2C(=O)O)cc1 [Example 51, 3-[4-(3-Aminopropylcarbamoyl)phenyl]-1-sulfamoyl-pyrrole-2-carboxylic acid hydrochloride]

Tested on: not listed separately
Test: Cytotoxicity Assay (CellTiter-Glo)
Type: cell-based
Settings: human, Hep G2 cells (ATCC HB-8065); 24 h exposure, cell viability; read-out: HepG2 CC50
Method: Cytotoxicity was evaluated in human Hep G2 cells (ATCC HB-8065) seeded at a density of 2×10^5 cells per well and incubated for 24 h at 37° C., 5% CO2. Cells were exposed to a doubling dilution series of test article. After 24 h exposure, the viability of the cells was determined using CellTiter-Glo® (Promega, Wis., USA) according to the manufacturer's instructions. Results are reported as the concentration of test article required to reduce cell viability by 50% (CC50).

SMILES | CC50 at 24 h
Cn1cc(-c2ccn(S(N)(=O)=O)c2C(=O)O)cn1 [Example 6, 3-(1-Methyl-1H-pyrazol-4-yl)-1-sulfamoyl-1H-pyrrole-2-carboxylic acid, sodium salt] | > 256 µg/mL
CS(=O)(=O)N1CCC(c2ccn(S(N)(=O)=O)c2C(=O)O)CC1 [Example 59, 3-(1-Methylsulfonyl-4-piperidyl)-1-sulfamoyl-pyrrole-2-carboxylic acid] | > 256 µg/mL
NS(=O)(=O)c1ccn(Cc2ccccc2)c1C(=O)O [Example 84, 1-Benzyl-3-sulfamoyl-pyrrole-2-carboxylic acid] | > 256 µg/mL
CS(=O)(=O)c1ccc(-c2ccn(S(N)(=O)=O)c2C(=O)O)cc1 [Example 5, 3-(4-Methanesulfonylphenyl)-1-sulfamoyl-1H-pyrrole-2-carboxylic acid, sodium salt] | > 256 µg/mL
NS(=O)(=O)n1ccc(C2CCNCC2)c1C(=O)O [Example 57, 3-(Piperidin-4-yl)-1-sulfamoyl-1H-pyrrole-2-carboxylic acid hydrochloride] | > 256 µg/mL
NS(=O)(=O)n1ccc(-c2ccc(F)cc2)c1C(=O)O [Example 18, 3-(4-Fluorophenyl)-1-sulfamoyl-pyrrole-2-carboxylic acid, sodium salt] | > 256 µg/mL
NS(=O)(=O)n1ccc(Cc2ccccc2)c1C(=O)O [Example 54, 3-Benzyl-1-sulfamoyl-1H-pyrrole-2-carboxylic acid] | 248 µg/mL (≈ 884 µM)
NS(=O)(=O)n1ccc(-c2ccc(C3CCNCC3)cc2)c1C(=O)O [Example 34, 3-[4-(Piperidin-4-yl)phenyl]-1-sulfamoyl-1H-pyrrole-2-carboxylic acid hydrochloride] | > 256 µg/mL
CC(=O)N1CCC(c2ccn(S(N)(=O)=O)c2C(=O)O)CC1 [Example 58, 3-(1-Acetylpiperidin-4-yl)-1-sulfamoyl-1H-pyrrole-2-carboxylic acid] | > 256 µg/mL
NS(=O)(=O)n1ccc(-c2ccc(N3CCOCC3)nc2)c1C(=O)O [Example 16, 3-[6-(Morpholin-4-yl)pyridin-3-yl]-1-sulfamoyl-1H-pyrrole-2-carboxylic acid] | > 64 µg/mL
Cc1cn(S(N)(=O)=O)c(C(=O)O)c1-c1ccccc1 [Example 75, 4-Methyl-3-phenyl-1-sulfamoyl-1H-pyrrole-2-carboxylic acid] | > 256 µg/mL
NS(=O)(=O)n1ccc(-c2ccncc2)c1C(=O)O [Example 9, 3-(Pyridin-4-yl)-1-sulfamoyl-1H-pyrrole-2-carboxylic acid, sodium salt] | > 256 µg/mL
NS(=O)(=O)n1ccc(-c2ccccc2F)c1C(=O)O [Example 14, 3-(2-Fluorophenyl)-1-sulfamoyl-pyrrole-2-carboxylic acid] | > 256 µg/mL
NS(=O)(=O)n1ccc(-c2ccccc2)c1C(=O)O [Example 3, 3-Phenyl-1-sulfamoyl-1H-pyrrole-2-carboxylic acid, sodium salt] | > 128 µg/mL
CN(C)S(=O)(=O)N1CCC(c2ccc(-c3ccn(S(N)(=O)=O)c3C(=O)O)cc2)CC1 [Example 49, 3-[4-[1-(Dimethylsulfamoyl)piperidin-4-yl]phenyl]-1-sulfamoyl-1H-pyrrole-2-carboxylic acid] | 66.4 µg/mL (≈ 145 µM)
NS(=O)(=O)n1ccc(-n2cccc2)c1C(=O)O [Example 73, 3-Pyrrol-1-yl-1-sulfamoyl-pyrrole-2-carboxylic acid, Sodium Salt] | > 256 µg/mL
NS(=O)(=O)n1ccc(-c2ccc(-c3ccncc3)cc2)c1C(=O)O [Example 13, 3-[4-(Pyridin-4-yl)phenyl]-1-sulfamoyl-1H-pyrrole-2-carboxylic acid] | > 256 µg/mL

SMILES | CC50 at 24 h
NS(=O)(=O)c1ccn(-c2ccc(C3CCNCC3)cc2)c1C(=O)O [Example 82, 1-[4-(Piperidin-4-yl)phenyl]-3-sulfamoyl-1H-pyrrole-2-carboxylic acid, sodium salt] | > 256 µg/mL
COc1ccc(-n2ccc(S(N)(=O)=O)c2C(=O)O)cc1 [Example 83, 1-(4-Methoxyphenyl)-3-sulfamoyl-pyrrole-2-carboxylic acid] | > 256 µg/mL
Cc1ccc(-n2ccc(S(N)(=O)=O)c2C(=O)O)cc1 [Example 81, 1-(p-Tolyl)-3-sulfamoyl-pyrrole-2-carboxylic acid] | > 256 µg/mL
Cc1nn(C)c(C)c1-c1ccn(S(N)(=O)=O)c1C(=O)O [Example 7, 1-Sulfamoyl-3-(1,3,5-trimethyl-1H-pyrazol-4-yl)-1H-pyrrole-2-carboxylic acid, sodium salt] | > 256 µg/mL
CCc1cn(S(N)(=O)=O)c(C(=O)O)c1-c1ccccc1 [Example 74, 4-Ethyl-3-phenyl-1-sulfamoyl-pyrrole-2-carboxylic acid] | 237 µg/mL (≈ 805 µM)
CC(C)(C)OC(=O)N1CCN(S(=O)(=O)c2ccc(-c3ccn(S(N)(=O)=O)c3C(=O)O)cc2)CC1 [Example 17, 3-[4-(4-tert-Butoxycarbonylpiperazin-1-yl)sulfonylphenyl]-1-sulfamoyl-pyrrole-2-carboxylic acid, sodium salt] | 252 µg/mL
NS(=O)(=O)n1ccc(C2=CCNCC2)c1C(=O)O [Example 38, 1-Sulfamoyl-3-(1,2,3,6-tetrahydropyridin-4-yl)-1H-pyrrole-2-carboxylic acid hydrochloride] | > 256 µg/mL
N#Cc1ccc(-c2ccn(S(N)(=O)=O)c2C(=O)O)cc1 [Example 15, 3-(4-Cyanophenyl)-1-sulfamoyl-1H-pyrrole-2-carboxylic acid] | > 256 µg/mL
CN(C)S(=O)(=O)c1ccc(-c2ccn(S(N)(=O)=O)c2C(=O)O)cc1 [Example 4, 3-[4-(Dimethylsulfamoyl)phenyl]-1-sulfamoyl-1H-pyrrole-2-carboxylic acid, sodium salt] | > 128 µg/mL
Cc1ccccc1-c1ccn(S(N)(=O)=O)c1C(=O)O [Example 20, 3-(o-Tolyl)-1-sulfamoyl-pyrrole-2-carboxylic acid] | > 256 µg/mL
CC(=O)N1CCC(c2ccc(-c3ccn(S(N)(=O)=O)c3C(=O)O)cc2)CC1 [Example 48, 3-[4-(1-Acetylpiperidin-4-yl)phenyl]-1-sulfamoyl-1H-pyrrole-2-carboxylic acid] | 158 µg/mL (≈ 405 µM)
NS(=O)(=O)n1ccc(-c2ccc(OC3CCNCC3)cc2)c1C(=O)O [Example 37, 3-[4-(Piperidin-4-yloxy)phenyl]-1-sulfamoyl-1H-pyrrole-2-carboxylic acid hydrochloride] | > 256 µg/mL
NS(=O)(=O)c1ccn(-c2ccc(F)cc2)c1C(=O)O [Example 80, 1-(4-Fluorophenyl)-3-sulfamoyl-pyrrole-2-carboxylic acid] | > 256 µg/mL
NS(=O)(=O)n1ccc(-c2ccc(S(=O)(=O)N3CCNCC3)cc2)c1C(=O)O [Example 35, 3-[4-(Piperazine-1-sulfonyl)phenyl]-1-sulfamoyl-1H-pyrrole-2-carboxylic acid] | > 256 µg/mL
NS(=O)(=O)n1ccc(C2CCCCC2)c1C(=O)O [Example 10, 3-Cyclohexyl-1-sulfamoyl-pyrrole-2-carboxylic acid, sodium salt] | 145 µg/mL
NS(=O)(=O)n1ccc(C2CC2)c1C(=O)O [Example 55, 3-Cyclopropyl-1-sulfamoyl-1H-pyrrole-2-carboxylic acid] | > 256 µg/mL
